Measured values taken from ChEMBL document CHEMBL1129410, “Diastereoselective synthesis of all four isomers of 3-(4-chlorophenyl) glutamic acid: identification of the isomers responsible for the potentiation of L-homocysteic acid-evoked depolarizations in neonatal rat motoneurons” (1996).

Organism: Rattus norvegicus
Experiment: Effects of isomer (100 uM) upon 10 uM L-HCA-induced depolarization; Control
Format: functional

SMILES	Others [%]
N[C@H](C(=O)O)[C@@H](CC(=O)O)c1ccc(Cl)cc1	114.5
N[C@@H](C(=O)O)[C@H](CC(=O)O)c1ccc(Cl)cc1	94.2
NC(C(=O)O)[C@H](CC(=O)O)c1ccc(Cl)cc1 (stereo partly drawn)	130.4
